These compounds were tested against T1, FBXL10 (Homo sapiens, UniProt Q8NHM5) (assay: FBXL10 in vitro enzyme inhibition assay (AlphaScreen)). Conditions: Table 3; 0.3 nM FBXL10, H3K36me2-biotin labeled peptide.
T1 construct: purchased BPS Bioscience 50120
T1 sequence (Q8NHM5 1-650): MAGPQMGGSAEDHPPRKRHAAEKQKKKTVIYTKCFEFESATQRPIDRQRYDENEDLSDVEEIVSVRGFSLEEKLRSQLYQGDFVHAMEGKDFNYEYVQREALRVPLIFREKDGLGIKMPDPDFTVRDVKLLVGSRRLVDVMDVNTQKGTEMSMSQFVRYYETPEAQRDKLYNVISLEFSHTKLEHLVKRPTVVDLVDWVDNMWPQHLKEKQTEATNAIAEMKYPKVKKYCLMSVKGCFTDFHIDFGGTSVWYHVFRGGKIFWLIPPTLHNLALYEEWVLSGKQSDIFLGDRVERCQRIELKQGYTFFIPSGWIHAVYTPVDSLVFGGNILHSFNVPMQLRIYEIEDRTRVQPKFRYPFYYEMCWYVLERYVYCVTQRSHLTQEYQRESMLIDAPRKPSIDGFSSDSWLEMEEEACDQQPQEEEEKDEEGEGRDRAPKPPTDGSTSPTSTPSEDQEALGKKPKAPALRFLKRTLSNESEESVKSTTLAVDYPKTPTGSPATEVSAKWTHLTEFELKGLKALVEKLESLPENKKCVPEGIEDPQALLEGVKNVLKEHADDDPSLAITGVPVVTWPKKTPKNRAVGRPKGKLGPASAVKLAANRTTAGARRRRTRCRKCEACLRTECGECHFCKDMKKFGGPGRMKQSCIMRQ
Assay type: biochemical
From the text: This assay determines the ability of a test compound to inhibit FBXL11, FBXL10, and PHF8 demethylase activity. Baculovirus expressed FBXL11 (GenBank Accession #NM_012308, AA1-1162) was purchased from BPS Bioscience (Cat#50102). Baculovirus expressed FBXL10 (GenBank Accession #NM_032590, AA 1-650) was purchased from BPS Bioscience (Cat #50120). Baculovirus expressed PHF8 (GenBank Accession NP_055922.1) was purchased from Active Motif (Cat#31435).
The ability of test compounds to inhibit the activity of FBXL10 was determined in 384-well plate format under the following reaction conditions: 0.3 nM FBXL10, 30 nM H3K36me2-biotin labeled peptide (Anaspec cat # 64442), 0.2 µM alpha-ketoglutaric acid in assay buffer of 50 mM HEPES, pH7.3, 0.005% Brij35, 0.5 mM TCEP, 0.2 mg/ml BSA, 50 µM sodium L-ascorbate, 5 µM ammonium iron(II) sulfate. Reaction product is determined quantitatively by AlphaScreen detection after the addition of detection reagents anti-H3K36me1 antibody, AlphaScreen® Streptavidin-coated Donor beads, and AlphaScreen® Protein A Acceptor beads in 50 mM HEPES, pH7.3, 10 mM NaCl, 0.005% Brij35, 5 mM EDTA, 2 mg/ml BSA to final 10 µg/ml beads.
The assay reaction was initiated by the following: 3 µl of the mixture of 90 nM H3K36me2-biotin labeled peptide and 0.6 µM alpha-ketoglutaric acid with 3 µl of 11-point serial diluted inhibitor in 3% DMSO are added to each well of 384 well Proxiplate (Perkin Elmer), followed by the addition of 3 µl of 0.9 nM FBXL10 to initiate the reaction. The reaction mixture is incubated at room temperature for 1 hour, and terminated by the addition of 3 µl of appropriate dilution of anti H3K36me1 antibody in 50 mM HEPES, pH7.3, 10 mM NaCl, 0.005% Brij35, 5 mM EDTA, 2 mg/ml BSA. Plates will then incubated at room temperature for 40 minutes, followed by addition of 3 µl of 50 µg/ml AlphaScreen® Streptavidin-coated Donor beads and AlphaScreen® Protein A Acceptor beads in 50 mM HEPES, pH7.3, 10 mM NaCl, 0.005% Brij35, 5 mM EDTA, 2 mg/ml BSA. Plates will then be read by EnVision Multilabel Reader in AlphaScreen mode after minimum 2 hour incubation at room temperature. The AlphaScreen signal for each well is used to determine inhibition constant (IC50).

| Structure (SMILES) | IC50 [nM] |
| --- | --- |
| Clc1ccc(-n2cnc(-c3cc4[nH]nnc4cn3)c2)cc1 [Example 49, 1-(4-chlorophenyl)-4-{1H-[1,2,3]triazolo[4,5-c]pyridin-6-yl}-1H-imidazole] | ≤ 100 |

Same assay, conditions: Table 5

| Structure (SMILES) | IC50 [nM] |
| --- | --- |
| CC(C)C(c1ccccc1)n1cnc(-c2cc(-c3nn[nH]c3C(F)(F)F)ccn2)c1 (stereo not drawn) [Example 75, 2-[1-(2-methyl-1-phenylpropyl)-1H-imidazol-4-yl]-4-[5-(trifluoromethyl)-1H-1,2,3-triazol-4-yl]pyridine] | 100 to 1000 |
| CCOc1ccccc1CCn1cnc(-c2cc(-c3nn[nH]c3C(F)(F)F)ccn2)c1 [Example 59] | 100 to 1000 |
| Fc1ccc(CCn2cnc(-c3cc(-c4nn[nH]c4C(F)(F)F)ccn3)c2)cc1 [Example 77] | ≤ 100 |
| COc1ccc(CCn2cnc(-c3cc(-c4nn[nH]c4C(F)(F)F)ccn3)c2)cc1 [Example 93, 2-{1-[2-(4-methoxyphenyl)ethyl]-1H-imidazol-4-yl}-4-[5-(trifluoromethyl)-1H-1,2,3-triazol-4-yl]pyridine] | ≤ 100 |
| Cc1ccc2c(c1)C(Cn1cnc(-c3cc(-c4nn[nH]c4C(F)(F)F)ccn3)c1)CCC2 (stereo not drawn) [Example 103, 2-{1-[(7-methyl-1,2,3,4-tetrahydronaphthalen-1-yl)methyl]-1H-imidazol-4-yl}-4-[5-(trifluoromethyl)-1H-1,2,3-triazol-4-yl]pyridine] | 100 to 1000 |
| O=C(c1ccccc1)N1CCC[C@@H](n2cnc(-c3cc(-c4nn[nH]c4C(F)(F)F)ccn3)c2)C1 [Example 89, 2-{1-[(3R)-1-benzoylpiperidin-3-yl]-1H-imidazol-4-yl}-4-[5-(trifluoromethyl)-1H-1,2,3-triazol-4-yl]pyridine] | ≤ 100 |
| Fc1ccc(F)c(CCn2cnc(-c3cc(-c4nn[nH]c4C(F)(F)F)ccn3)c2)c1 [Example 88, 2-{1-[2-(2,5-difluorophenyl)ethyl]-1H-imidazol-4-yl}-4-[5-(trifluoromethyl)-1H-1,2,3-triazol-4-yl]pyridine] | ≤ 100 |
| FC(F)(F)c1ccc(CCn2cnc(-c3cc(-c4nn[nH]c4C(F)(F)F)ccn3)c2)cc1 [Example 94, 4-[5-(trifluoromethyl)-1H-1,2,3-triazol-4-yl]-2-(1-{2-[4-(trifluoromethyl)phenyl]ethyl}-1H-imidazol-4-yl)pyridine] | 100 to 1000 |
| CCC(c1ccccc1)n1cnc(-c2cc(-c3nn[nH]c3C(F)(F)F)ccn2)c1 (stereo not drawn) [Example 74, 2-[1-(1-phenylpropyl)-1H-imidazol-4-yl]-4-[5-(trifluoromethyl)-1H-1,2,3-triazol-4-yl]pyridine] | ≤ 100 |
| Fc1cccc(Cl)c1CCn1cnc(-c2cc(-c3nn[nH]c3C(F)(F)F)ccn2)c1 [Example 80, 2-{1-[2-(2-chloro-6-fluorophenyl)ethyl]-1H-imidazol-4-yl}-4-[5-(trifluoromethyl)-1H-1,2,3-triazol-4-yl]pyridine] | 100 to 1000 |
| COc1ccc2c(c1)CCCC2Cn1cnc(-c2cc(-c3nn[nH]c3C(F)(F)F)ccn2)c1 (stereo not drawn) [Example 105, 2-{1-[(6-methoxy-1,2,3,4-tetrahydronaphthalen-1-yl)methyl]-1H-imidazol-4-yl}-4-[5-(trifluoromethyl)-1H-1,2,3-triazol-4-yl]pyridine] | 100 to 1000 |
| FC(F)(F)c1[nH]nnc1-c1ccnc(-c2cn(Cc3ccc(Cl)cc3)cn2)c1 [Example 63, 2-{1-[(4-chlorophenyl)methyl]-1H-imidazol-4-yl}-4-[5-(trifluoromethyl)-1H-1,2,3-triazol-4-yl]pyridine] | ≤ 100 |
| O=C(c1ccccc1)N1CCC[C@H](n2cnc(-c3cc(-c4nn[nH]c4C(F)(F)F)ccn3)c2)C1 [Example 90, 2-{1-[(3S)-1-benzoylpiperidin-3-yl]-1H-imidazol-4-yl}-4-[5-(trifluoromethyl)-1H-1,2,3-triazol-4-yl]pyridine] | ≤ 100 |
| Cc1ccc(CCn2cnc(-c3cc(-c4nn[nH]c4C(F)(F)F)ccn3)c2)cc1 [Example 91, 2-{1-[2-(4-methylphenyl)ethyl]-1H-imidazol-4-yl}-4-[5-(trifluoromethyl)-1H-1,2,3-triazol-4-yl]pyridine] | ≤ 100 |

Reference: patent publication EP3436445B1, “HISTONE DEMETHYLASE INHIBITORS” (Celgene Quanticel Research, Inc., priority 2016, dated 2017)
